According to US5455255A, “2-(2,3,5,6-tetrafluoro-4-pyridyl)-1,2-benzisothiazol-3(2H)-one 1,1-dioxides and compositions and method of use thereof” (Sterling Winthrop Inc., priority 1994, dated 1995):

Molecular target: T1, human leukocyte elastase (Homo sapiens, UniProt P08246)
T1 sequence (P08246 30-267): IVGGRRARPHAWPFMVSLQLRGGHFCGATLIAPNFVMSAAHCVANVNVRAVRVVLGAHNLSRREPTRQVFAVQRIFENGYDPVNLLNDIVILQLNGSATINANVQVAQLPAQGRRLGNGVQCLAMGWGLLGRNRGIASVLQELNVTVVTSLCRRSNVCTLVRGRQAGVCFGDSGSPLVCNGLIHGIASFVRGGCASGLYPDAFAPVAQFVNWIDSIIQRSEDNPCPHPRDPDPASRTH
Assay: Human leukocyte elastase (HLE) inhibition, progress-curve assay with MeOSuc-Ala-Ala-Pro-Val-pNA
Format: biochemical
Conditions: substrate MeOSuc-Ala-Ala-Pro-Val-pNA, pH 7.8, 25° C., absorbance 410 nm, read-out: Ki (human leukocyte elastase inhibitory activity)
Protocol: The test compound (inhibitor) is dissolved in DMSO in a vial to produce an inhibitor stock solution which has a concentration in the range of 200-1000 μM. The inhibitor stock solution is diluted (1:4, 1:16 and 1:64) into assay vials (vials 1, 2 and 3 respectively) containing 2.4 mL of buffer solution (50 mM N-[2-hydroxyethyl] piperazine-N'-[2-ethanesulfonic acid]/NaOH, 500 mM NaCl, pH 7.8 at 25° C.) and DMSO is added so that the total volume in each vial is 3.2 mL. 70 μL, 50 μL, 35 μL and 25 μL of inhibitor from assay vial 1 is placed into the first four wells of a 96-well microtiter plate and each well is made up to 90 μL total volume with the addition of a 25% DMSO/buffer solution. The inhibitor from assay vials 2 and 3 is processed in a similar manner and placed in wells 5-12 respectively to afford a total of 12 different inhibitor concentrations. Four wells (wells 13-16) containing 90 μL of the 25% DMSO/buffer solution but no inhibitor are also run simultaneously with the inhibited wells as a control. 150 μL of substrate solution (prepared by the addition of 500 μL of the human leukocyte elastase (HLE) substrate MeOSuc-Ala-Ala-Pro-Val-pNA (18.7 mM in DMSO) to 19.5 mL of buffer solution) was then added simultaneously into each of the 16 wells and the solution in each well was thoroughly mixed.
The 96-well microtiter plate was placed into a Microplate Reader #89815A spectrophotometer 110 μL of the enzyme solution (prepared as follows: a mixture of 20 mL of buffer solution and 20 mg of bovine serum albumen is gently vortexed in a scintillation vial and 5 μL HLE stock solution (1 mg/mL dissolved in deionized water) is added simultaneously to each of the 16 wells. Each of the solutions in the wells is throughly mixed and then the time-dependent absorbance data is collected at an absorbance of 410 nm until the assay is complete. It should be noted that although this assay method can be done manually, it is preferred to perform the assay robotically using a Hewlett Packard MicroAssay System Robot.
A plot of the absorbance versus time data thus obtained affords progress curves the final slope of which is equal to the final steady-state velocities (VF). Using the program. ENZFITTER (Elsevier software), the progress curves for the four control assays ([I]=O) are fit by linear regression to yield the enzyme reaction velocity values in the absences of inhibitor (Vo) which are averaged to produce a single fixed value. The inhibition constant Ki (nM) is then obtained from a plot of [formula] which affords a linear plot wherein: [formula] and [S] is the concentration of the substrate and Km is the Michaelis constant.
Table IV summarizes the results obtained from the testing of representative compounds of the invention for human leukocyte elastase inhibitory activity.

SMILES	Ki [nM]
CC(C)Oc1cccc2c1C(=O)N(c1c(F)c(F)nc(F)c1F)S2(=O)=O [Example 9]	140
COc1ccc2c(c1OC)C(=O)N(c1c(F)c(F)nc(F)c1F)S2(=O)=O [Example 5]	15
CC(C)Oc1cc(C(C)C)c2c(c1)S(=O)(=O)N(c1c(F)c(F)nc(F)c1F)C2=O [Example 12, 4-isopropyl-6-isopropoxy-2-(2,3,5,6-tetrafluoro-4-pyridyl)-1.2-benzisothiazol-3(2H)-one 1,1-dioxide]	50
COc1ccc2c(c1)S(=O)(=O)N(c1c(F)c(F)nc(F)c1F)C2=O [Example 10A]	74
CCOc1cccc2c1C(=O)N(c1c(F)c(F)nc(F)c1F)S2(=O)=O [Example 8]	1.4
COc1cc(OC)c2c(c1)S(=O)(=O)N(c1c(F)c(F)nc(F)c1F)C2=O [Example 4]	4
CC(C)c1cc(O)cc2c1C(=O)N(c1c(F)c(F)nc(F)c1F)S2(=O)=O [Example 11, 4-isopropyl-6-hydroxy-2-(2,3,5,6-tetrafluoro-4-pyridyl)-1,2-benzisothiazol-1,2-benzisothiazol-3(2H)-one 1,1-dioxide]	2000
CCCc1c(OC)c(OC)cc2c1C(=O)N(c1c(F)c(F)nc(F)c1F)S2(=O)=O [Example 6]	16

Further molecules by falling Ki, results first:

Ki [nM]	SMILES
100	CC(C)c1cccc2c1C(=O)N(c1c(F)c(F)nc(F)c1F)S2(=O)=O [Example 10]
47.5	COc1cc2c(c(C(C)C)c1OC)C(=O)N(c1c(F)c(F)nc(F)c1F)S2(=O)=O [Example 3]
38	COc1cc(C(C)C)c2c(c1)S(=O)(=O)N(c1c(F)c(F)nc(F)c1F)C2=O [Example 2, 4-isopropyl-6-methoxy-2-(2,3,5,6-tetrafluoro-4-pyridyl)-1,2-benzisothiazol-3(2H)-one 1,1-dioxide]
20	O=C1c2ccccc2S(=O)(=O)N1c1c(F)c(F)nc(F)c1F [Example 1, 2-(2,3,5,6-tetrafluoro-4-pyridyl)-1,2-benzisothiazol-3(2H)-one 1,1-dioxide]
6.5	COc1cccc2c1C(=O)N(c1c(F)c(F)nc(F)c1F)S2(=O)=O [Example 7]
